Results published in paper PMC5218480 (PLoS ONE, 2017).

Tested on: MV-4-11 cells
Experiment: Gene expression microarray analysis (Affymetrix PrimeView) and GSEA
Type: cell-based, human
Design: RFU PODN (11730768_x_at) / Fold change /veh PODN (11730768_x_at) / RFU LINC00158 (11744669_a_at) / Fold change /veh LINC00158 (11744669_a_at) / RFU DUSP10 (11751237_a_at) / Fold change /veh DUSP10 (11751237_a_at) / RFU ID3 (11757404_x_at) / Fold change /veh ID3 (11757404_x_at) / RFU PLEKHG5 (11737974_s_at) / Fold change /veh PLEKHG5 (11737974_s_at) / RFU LRRC4B (11730491_at) / Fold change /veh LRRC4B (11730491_at) / RFU GIMAP4 (11747438_a_at) / Fold change /veh GIMAP4 (11747438_a_at) / RFU KRT8 (11758183_x_at) / Fold change /veh KRT8 (11758183_x_at) / RFU CNN1 (11734310_a_at) / Fold change /veh CNN1 (11734310_a_at) / RFU VPS37D (11726825_at) / Fold change /veh VPS37D (11726825_at) / RFU C10orf10 (11716522_x_at) / Fold change /veh C10orf10 (11716522_x_at) / RFU KIR2DL2 /// KIR2DL4 /// KIR2DL5A /// KIR2DL5B /// KIR2DS1 /// KIR2DS2 /// KIR2DS3 /// KIR2DS4 /// KIR3DL3 /// KIR3DL3 /// KIR3DS1 (11738374_at) / Fold change /veh KIR2DL2 /// KIR2DL4 /// KIR2DL5A /// KIR2DL5B /// KIR2DS1 /// KIR2DS2 /// KIR2DS3 /// KIR2DS4 /// KIR3DL3 /// KIR3DL3 /// KIR3DS1 (11738374_at) / RFU C1QL1 (11718748_at) / Fold change /veh C1QL1 (11718748_at) / RFU TMPRSS4 (11747572_a_at) / Fold change /veh TMPRSS4 (11747572_a_at) / RFU HAMP (11756126_x_at) / Fold change /veh HAMP (11756126_x_at) / RFU RNFT2 (11725882_a_at) / Fold change /veh RNFT2 (11725882_a_at) / RFU NR4A2 (11747474_a_at) / Fold change /veh NR4A2 (11747474_a_at) / RFU ABCC12 (11746883_a_at) / Fold change /veh ABCC12 (11746883_a_at) / RFU TMEM136 (11760407_x_at) / Fold change /veh TMEM136 (11760407_x_at) / RFU CLDN22 /// WWC2 (11732394_at) / Fold change /veh CLDN22 /// WWC2 (11732394_at) / RFU HLA-DPB1 (11760878_x_at) / Fold change /veh HLA-DPB1 (11760878_x_at) / RFU SPINT1 (11716480_a_at) / Fold change /veh SPINT1 (11716480_a_at) / RFU GAP43 (11754022_s_at) / Fold change /veh GAP43 (11754022_s_at) / RFU A4GNT (11735810_at) / Fold change /veh A4GNT (11735810_at) / RFU PRB3 (11715151_x_at) / Fold change /veh PRB3 (11715151_x_at) / RFU TUBB4B (11761932_at) / Fold change /veh TUBB4B (11761932_at) / RFU CAPN14 (11732068_a_at) / Fold change /veh CAPN14 (11732068_a_at) / RFU TMCC2 (11721928_a_at) / Fold change /veh TMCC2 (11721928_a_at) / RFU IRGQ (11745062_a_at) / Fold change /veh IRGQ (11745062_a_at) / RFU FAM174B (11720279_a_at) / Fold change /veh FAM174B (11720279_a_at) / RFU TMPRSS4 (11748680_a_at) / Fold change /veh TMPRSS4 (11748680_a_at) / RFU FAM212B (11763350_a_at) / Fold change /veh FAM212B (11763350_a_at) / RFU PLEKHG5 (11743358_a_at) / Fold change /veh PLEKHG5 (11743358_a_at) / RFU ZSCAN30 (11745921_a_at) / Fold change /veh ZSCAN30 (11745921_a_at) / RFU CMKLR1 (11741424_a_at) / Fold change /veh CMKLR1 (11741424_a_at) / RFU LOC101060620 /// MAPK8IP1 (11723275_at) / Fold change /veh LOC101060620 /// MAPK8IP1 (11723275_at) / RFU SPTSSB (11747773_x_at) / Fold change /veh SPTSSB (11747773_x_at) / RFU PRSS12 (11739890_at) / Fold change /veh PRSS12 (11739890_at) / RFU BIN1 (11741810_x_at) / Fold change /veh BIN1 (11741810_x_at) / RFU WNT11 (11732464_a_at) / Fold change /veh WNT11 (11732464_a_at) / RFU C10orf10 (11716521_a_at) / Fold change /veh C10orf10 (11716521_a_at) / RFU C5orf56 (11738089_at) / Fold change /veh C5orf56 (11738089_at) / RFU CYB561 (11721691_x_at) / Fold change /veh CYB561 (11721691_x_at) / RFU ANKRD19P (11752326_a_at) / Fold change /veh ANKRD19P (11752326_a_at) / RFU OR2T12 /// OR2T33 /// OR2T8 (11738714_s_at) / Fold change /veh OR2T12 /// OR2T33 /// OR2T8 (11738714_s_at) / RFU VCAN (11748164_a_at) / Fold change /veh VCAN (11748164_a_at) / RFU JSRP1 (11732532_at) / Fold change /veh JSRP1 (11732532_at) / RFU KRTAP10-11 (11738290_x_at) / Fold change /veh KRTAP10-11 (11738290_x_at) / RFU MYO3A (11730013_a_at) / Fold change /veh MYO3A (11730013_a_at) / RFU EBF3 (11725865_a_at) / Fold change /veh EBF3 (11725865_a_at) / RFU CAMK2N1 (11719241_x_at) / Fold change /veh CAMK2N1 (11719241_x_at) / RFU C5orf56 (11738088_a_at) / Fold change /veh C5orf56 (11738088_a_at) / RFU OLFML3 (11715873_a_at) / Fold change /veh OLFML3 (11715873_a_at) / RFU LOC100653217 /// NTM (11731650_a_at) / Fold change /veh LOC100653217 /// NTM (11731650_a_at) / RFU MAPK11 (11762145_a_at) / Fold change /veh MAPK11 (11762145_a_at) / RFU FIZ1 (11724087_x_at) / Fold change /veh FIZ1 (11724087_x_at) / RFU OASL (11726364_x_at) / Fold change /veh OASL (11726364_x_at) / RFU SOX15 (11748057_x_at) / Fold change /veh SOX15 (11748057_x_at) / RFU CD79A (11719716_a_at) / Fold change /veh CD79A (11719716_a_at) / RFU HIST1H1D (11736915_at) / Fold change /veh HIST1H1D (11736915_at) / RFU CASKIN2 (11723855_a_at) / Fold change /veh CASKIN2 (11723855_a_at) / RFU LOC730098 (11760151_x_at) / Fold change /veh LOC730098 (11760151_x_at) / RFU OR4N2 (11742367_at) / Fold change /veh OR4N2 (11742367_at) / RFU PRRT2 (11749266_a_at) / Fold change /veh PRRT2 (11749266_a_at) / RFU SNX32 (11753110_a_at) / Fold change /veh SNX32 (11753110_a_at) / RFU CDHR5 (11726645_a_at) / Fold change /veh CDHR5 (11726645_a_at) / RFU RCAN1 (11760418_a_at) / Fold change /veh RCAN1 (11760418_a_at) / RFU FAM167A (11723789_a_at) / Fold change /veh FAM167A (11723789_a_at) / RFU FAM26E (11764081_at) / Fold change /veh FAM26E (11764081_at) / RFU ISYNA1 (11749810_s_at) / Fold change /veh ISYNA1 (11749810_s_at) / RFU ACY1 (11761880_at) / Fold change /veh ACY1 (11761880_at) / RFU 11764098_at / Fold change /veh 11764098_at / RFU SAMD14 (11745864_x_at) / Fold change /veh SAMD14 (11745864_x_at) / RFU NPB (11741838_a_at) / Fold change /veh NPB (11741838_a_at) / RFU TMPRSS6 (11731388_a_at) / Fold change /veh TMPRSS6 (11731388_a_at) / RFU KRTAP10-2 (11738614_at) / Fold change /veh KRTAP10-2 (11738614_at) / RFU ARHGAP8 /// PRR5-ARHGAP8 (11727945_x_at) / Fold change /veh ARHGAP8 /// PRR5-ARHGAP8 (11727945_x_at) / RFU KRTAP5-7 /// NADSYN1 (11734609_at) / Fold change /veh KRTAP5-7 /// NADSYN1 (11734609_at) / RFU RASL12 (11751679_a_at) / Fold change /veh RASL12 (11751679_a_at) / RFU CDKN2B (11736163_a_at) / Fold change /veh CDKN2B (11736163_a_at) / RFU PRF1 (11729649_at) / Fold change /veh PRF1 (11729649_at) / RFU, ZNF638 /// ZNF638-IT1 / Fold change vs veh, ZNF638 /// ZNF638-IT1 / RFU, PANK3 / Fold change vs veh, PANK3 / RFU, SH3YL1 / Fold change vs veh, SH3YL1 / RFU, ZEB2 / Fold change vs veh, ZEB2 / RFU, NRIP1 / Fold change vs veh, NRIP1 / RFU, PTTG1IP / Fold change vs veh, PTTG1IP / RFU, CAPN2 / Fold change vs veh, CAPN2 / RFU, MED14 / Fold change vs veh, MED14 / RFU, SNORA58 / Fold change vs veh, SNORA58 / RFU, C1orf63 / Fold change vs veh, C1orf63 / RFU, LRRFIP1 / Fold change vs veh, LRRFIP1 / RFU, NDUFAF7 / Fold change vs veh, NDUFAF7 / RFU, SLC12A2 / Fold change vs veh, SLC12A2 / RFU, IBTK / Fold change vs veh, IBTK / RFU, ESF1 / Fold change vs veh, ESF1 / Fold change vs veh, TMEM50B / RFU, TAOK1 / Fold change vs veh, TAOK1 / RFU, ACBD3 / Fold change vs veh, ACBD3 / RFU, TMA16 / Fold change vs veh, TMA16 / RFU, RWDD3 / Fold change vs veh, RWDD3 / RFU, BCAT1 / Fold change vs veh, BCAT1 / RFU, EDEM3 / Fold change vs veh, EDEM3 / RFU, TMEM33 / Fold change vs veh, TMEM33 / RFU, WDR75 / Fold change vs veh, WDR75 / RFU, AHCTF1 / Fold change vs veh, AHCTF1 / RFU, TFRC / Fold change vs veh, TFRC / RFU, ZDHHC17 / Fold change vs veh, ZDHHC17 / RFU, NOM1 / Fold change vs veh, NOM1 / RFU, ARL8B / Fold change vs veh, ARL8B / RFU, ZBTB11 / Fold change vs veh, ZBTB11 / RFU, TAMM41 / Fold change vs veh, TAMM41 / RFU, KIAA1704 /// LOC100996395 / Fold change vs veh, KIAA1704 /// LOC100996395 / RFU, ING1 / Fold change vs veh, ING1 / RFU, TRMT61B / Fold change vs veh, TRMT61B / RFU, FUBP3 / Fold change vs veh, FUBP3 / RFU, TP53 / Fold change vs veh, TP53 / RFU, TNKS2 / Fold change vs veh, TNKS2 / RFU, ZFP14 / Fold change vs veh, ZFP14 / RFU, ACTR2 / Fold change vs veh, ACTR2 / RFU, PPP3R1 / Fold change vs veh, PPP3R1 / RFU, PIK3R1 / Fold change vs veh, PIK3R1 / RFU, HNRNPA1 / Fold change vs veh, HNRNPA1 / RFU, RNF170 / Fold change vs veh, RNF170 / RFU, ZNF28 / Fold change vs veh, ZNF28 / RFU, RNGTT / Fold change vs veh, RNGTT / RFU, OGT / Fold change vs veh, OGT / RFU, BRD1 / Fold change vs veh, BRD1 / RFU, MARS / Fold change vs veh, MARS / RFU, ZNF655 / Fold change vs veh, ZNF655 / RFU, FAHD1 / Fold change vs veh, FAHD1 / RFU, BDP1 / Fold change vs veh, BDP1 / RFU, LRRCC1 / Fold change vs veh, LRRCC1 / RFU, ARID1A / Fold change vs veh, ARID1A / RFU, ZNF146 / Fold change vs veh, ZNF146 / RFU, ZNF330 / Fold change vs veh, ZNF330 / RFU, GPN3 / Fold change vs veh, GPN3 / RFU, C9orf123 / Fold change vs veh, C9orf123 / RFU, N4BP2L2 / Fold change vs veh, N4BP2L2 / RFU, ARFIP1 / Fold change vs veh, ARFIP1 / RFU, FAM179B / Fold change vs veh, FAM179B / RFU, BCL10 / Fold change vs veh, BCL10 / RFU, UHRF1BP1L / Fold change vs veh, UHRF1BP1L / RFU, BET1 / Fold change vs veh, BET1 / RFU, CNOT2 / Fold change vs veh, CNOT2 / RFU, ZNF268 / Fold change vs veh, ZNF268 / Fold change vs veh, ZNF507 / RFU, DGCR2 / Fold change vs veh, DGCR2 / RFU, WDSUB1 / Fold change vs veh, WDSUB1 / Fold change vs veh, HSP90B1 /// MIR3652 / RFU, ADSS / Fold change vs veh, ADSS / RFU, GK / Fold change vs veh, GK / RFU, ZNF148 / Fold change vs veh, ZNF148 / RFU, TAF9 / Fold change vs veh, TAF9 / RFU, SLC1A5 / Fold change vs veh, SLC1A5 / RFU, SLMO2 / Fold change vs veh, SLMO2 / RFU, ABCC4 / Fold change vs veh, ABCC4 / RFU, LOC101060439 /// RAP1B / Fold change vs veh, LOC101060439 /// RAP1B / RFU, RFX7 / Fold change vs veh, RFX7 / RFU, GTPBP10 / Fold change vs veh, GTPBP10 / RFU, CNEP1R1 / Fold change vs veh, CNEP1R1 / RFU, BIVM-ERCC5 /// ERCC5 / Fold change vs veh, BIVM-ERCC5 /// ERCC5 / RFU, ILF3 / Fold change vs veh, ILF3 / RFU 11762660_at / Fold change /veh 11762660_at / RFU VCAN (11757783_s_at) / Fold change /veh VCAN (11757783_s_at) / RFU DDX43 (11728927_at) / Fold change /veh DDX43 (11728927_at) / RFU KRT8 (11758188_x_at) / Fold change /veh KRT8 (11758188_x_at) / RFU NKD1 (11759106_at) / Fold change /veh NKD1 (11759106_at) / RFU SRD5A1 (11742802_a_at) / Fold change /veh SRD5A1 (11742802_a_at) / RFU TPSAB1 /// TPSB2 (11721975_s_at) / Fold change /veh TPSAB1 /// TPSB2 (11721975_s_at) / RFU GSTM3 (11746129_a_at) / Fold change /veh GSTM3 (11746129_a_at) / RFU IL23R (11737362_x_at) / Fold change /veh IL23R (11737362_x_at) / RFU TMEM51 (11727254_a_at) / Fold change /veh TMEM51 (11727254_a_at) / RFU PIWIL2 (11732686_x_at) / Fold change /veh PIWIL2 (11732686_x_at) / RFU ORM1 (11744905_x_at) / Fold change /veh ORM1 (11744905_x_at) / RFU CCDC152 (11743942_at) / Fold change /veh CCDC152 (11743942_at) / RFU ECM1 (11717891_a_at) / Fold change /veh ECM1 (11717891_a_at) / RFU IL23R (11748794_a_at) / Fold change /veh IL23R (11748794_a_at) / RFU TNFAIP8L3 (11732012_x_at) / Fold change /veh TNFAIP8L3 (11732012_x_at) / RFU MBOAT4 (11741988_at) / Fold change /veh MBOAT4 (11741988_at) / RFU 11764193_at / Fold change /veh 11764193_at / RFU TMEM53 (11763286_at) / Fold change /veh TMEM53 (11763286_at) / RFU MAGEB2 (11727129_at) / Fold change /veh MAGEB2 (11727129_at) / RFU TMEM200A (11744735_a_at) / Fold change /veh TMEM200A (11744735_a_at) / RFU CCDC152 (11751479_a_at) / Fold change /veh CCDC152 (11751479_a_at) / RFU FAM211A (11726209_a_at) / Fold change /veh FAM211A (11726209_a_at) / RFU RGS16 (11746705_a_at) / Fold change /veh RGS16 (11746705_a_at) / RFU VCAN (11755009_s_at) / Fold change /veh VCAN (11755009_s_at) / RFU RHOB (11743442_s_at) / Fold change /veh RHOB (11743442_s_at) / RFU RGS16 (11720943_a_at) / Fold change /veh RGS16 (11720943_a_at) / RFU RGS16 (11720944_at) / Fold change /veh RGS16 (11720944_at) / RFU, VPS4B / Fold change vs veh, VPS4B / RFU, CREB1 / Fold change vs veh, CREB1 / RFU, DNAJC13 / Fold change vs veh, DNAJC13 / RFU, GNAQ / Fold change vs veh, GNAQ / RFU, CDK5R1 / Fold change vs veh, CDK5R1 / RFU, ZRANB3 / Fold change vs veh, ZRANB3 / RFU, CUL4A / Fold change vs veh, CUL4A / RFU, CCNY / Fold change vs veh, CCNY / RFU, UFL1 / Fold change vs veh, UFL1 / RFU, COG3 / Fold change vs veh, COG3 / RFU, DIAPH2 / Fold change vs veh, DIAPH2 / RFU, SKA2 / Fold change vs veh, SKA2 / RFU, AFF3 / Fold change vs veh, AFF3 / RFU, LMF1 / Fold change vs veh, LMF1 / RFU, IPO11 / Fold change vs veh, IPO11 / RFU, DFFB / Fold change vs veh, DFFB / RFU, FOXP1 / Fold change vs veh, FOXP1 / RFU, CARD8 / Fold change vs veh, CARD8 / RFU, STRN3 / Fold change vs veh, STRN3 / RFU, ADK / Fold change vs veh, ADK / RFU, RASSF2 / Fold change vs veh, RASSF2 / RFU, WIPF1 / Fold change vs veh, WIPF1 / RFU, LARP1B / Fold change vs veh, LARP1B / RFU, RASA1 / Fold change vs veh, RASA1 / RFU, RB1 / Fold change vs veh, RB1 / RFU, PPFIA1 / Fold change vs veh, PPFIA1 / RFU, MAT2A / Fold change vs veh, MAT2A / RFU, CCT5 / Fold change vs veh, CCT5 / RFU, WDR92 / Fold change vs veh, WDR92 / RFU, CUX1 / Fold change vs veh, CUX1 / RFU, TTC7A / Fold change vs veh, TTC7A / RFU, TMEM135 / Fold change vs veh, TMEM135 / RFU, DEPTOR / Fold change vs veh, DEPTOR / RFU, CPM / Fold change vs veh, CPM / RFU, DNAJB6 / Fold change vs veh, DNAJB6 / RFU, CACNA2D3 / Fold change vs veh, CACNA2D3 / RFU, DTX4 / Fold change vs veh, DTX4 / RFU, TFCP2 / Fold change vs veh, TFCP2 / RFU, GMCL1 /// GMCL1P1 / Fold change vs veh, GMCL1 /// GMCL1P1 / RFU, AEBP2 / Fold change vs veh, AEBP2 / RFU, SNHG1 /// SNORD22 /// SNORD25 /// SNORD26 /// SNORD27 /// SNORD28 /// SNORD29 /// SNORD31 / Fold change vs veh, SNHG1 /// SNORD22 /// SNORD25 /// SNORD26 /// SNORD27 /// SNORD28 /// SNORD29 /// SNORD31 / Fold change (Aza/veh), C12orf56 (ProbeSet 11735607_a_at) / Fold change (ACY-1035/veh), C12orf56 (ProbeSet 11735607_a_at) / Fold change (Aza/veh), FGFR1OP (ProbeSet 11751329_s_at) / Fold change (ACY-1035/veh), FGFR1OP (ProbeSet 11751329_s_at) / Fold change (Aza/veh), VPS36 (ProbeSet 11739960_a_at) / Fold change (ACY-1035/veh), VPS36 (ProbeSet 11739960_a_at) / RFU SYPL1 (11715823_x_at) / Fold change /veh SYPL1 (11715823_x_at) / RFU IGFBP7 (11715501_s_at) / Fold change /veh IGFBP7 (11715501_s_at) / RFU REEP3 (11722064_at) / Fold change /veh REEP3 (11722064_at) / RFU IGLL1 (11728026_x_at) / Fold change /veh IGLL1 (11728026_x_at): dose or concentration left out as unconfirmed
Details: MV-4-11 cells, 48 hours

SMILES: Nc1ncn([C@@H]2O[C@H](CO)[C@@H](O)[C@H]2O)c(=O)n1 [azacitidine]
- RFU LINC00158 (11744669_a_at): 7.44 RFU
